pIC50: −log10 of the molar value.
Key:
[1] = biological target: Phosphatidylinositol 4,5-bisphosphate 3-kinase catalytic subunit alpha isoform (Homo sapiens, UniProt P42336); test: Inhibition of recombinant PI3Kalpha (unknown origin) using PIP2:3PS as substrate preincubated for 20 mins followed by ATP addition and measured after 1 hrs by ADP-Glo reagent based assay
[2] = Chemical reactivity of the compound with N-Boc-Lysine assessed as half-life at 1 uM by HPLC analysis; type: physicochemical; conditions: incubation with N-Boc-Lysine
[3] = Growth inhibition of PI3Kdelta-overexpressing human Pfeiffer cells incubated for 72 hrs by MTT assay; type: functional
[4] = biological target: T1, Phosphatidylinositol 4,5-bisphosphate 3-kinase catalytic subunit delta isoform (Homo sapiens, UniProt O00329); test: Inhibition of recombinant PI3Kdelta (unknown origin) using PIP2:3PS as substrate preincubated for 20 mins followed by ATP addition and measured after 1 hrs by ADP-Glo reagent based assay
T1 sequence (O00329 whole entry): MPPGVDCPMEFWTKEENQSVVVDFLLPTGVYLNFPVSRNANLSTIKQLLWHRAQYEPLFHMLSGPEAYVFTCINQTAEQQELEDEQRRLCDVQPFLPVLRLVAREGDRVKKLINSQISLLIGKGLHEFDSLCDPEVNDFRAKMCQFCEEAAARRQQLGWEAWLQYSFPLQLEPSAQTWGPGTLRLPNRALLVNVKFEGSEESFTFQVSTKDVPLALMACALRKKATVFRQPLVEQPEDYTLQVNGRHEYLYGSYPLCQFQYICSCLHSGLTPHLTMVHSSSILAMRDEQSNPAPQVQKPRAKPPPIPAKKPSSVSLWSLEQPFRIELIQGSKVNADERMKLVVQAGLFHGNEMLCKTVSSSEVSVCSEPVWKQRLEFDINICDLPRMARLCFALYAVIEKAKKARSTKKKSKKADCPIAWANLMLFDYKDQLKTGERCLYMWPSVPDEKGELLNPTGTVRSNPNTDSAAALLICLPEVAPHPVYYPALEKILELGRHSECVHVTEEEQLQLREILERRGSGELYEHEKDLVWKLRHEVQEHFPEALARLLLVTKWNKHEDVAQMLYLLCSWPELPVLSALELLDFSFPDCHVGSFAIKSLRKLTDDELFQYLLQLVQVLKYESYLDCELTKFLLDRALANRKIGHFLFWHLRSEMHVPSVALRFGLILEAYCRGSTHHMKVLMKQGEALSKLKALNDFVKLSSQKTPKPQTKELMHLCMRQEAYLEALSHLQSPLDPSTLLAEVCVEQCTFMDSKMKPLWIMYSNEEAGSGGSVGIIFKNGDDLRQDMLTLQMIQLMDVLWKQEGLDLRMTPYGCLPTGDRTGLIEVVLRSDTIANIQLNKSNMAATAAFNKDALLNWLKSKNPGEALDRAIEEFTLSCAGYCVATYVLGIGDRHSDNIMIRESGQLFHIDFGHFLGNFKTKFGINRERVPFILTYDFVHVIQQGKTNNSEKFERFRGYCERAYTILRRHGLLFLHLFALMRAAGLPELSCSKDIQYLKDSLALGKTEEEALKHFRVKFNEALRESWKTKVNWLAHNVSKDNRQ

[5] = Growth inhibition of PI3Kdelta-overexpressing human SU-DHL-6 cells incubated for 72 hrs by MTT assay; type: functional

Chain of Phosphatidylinositol 4,5-bisphosphate 3-kinase catalytic subunit alpha isoform (P42336 whole entry, canonical isoform): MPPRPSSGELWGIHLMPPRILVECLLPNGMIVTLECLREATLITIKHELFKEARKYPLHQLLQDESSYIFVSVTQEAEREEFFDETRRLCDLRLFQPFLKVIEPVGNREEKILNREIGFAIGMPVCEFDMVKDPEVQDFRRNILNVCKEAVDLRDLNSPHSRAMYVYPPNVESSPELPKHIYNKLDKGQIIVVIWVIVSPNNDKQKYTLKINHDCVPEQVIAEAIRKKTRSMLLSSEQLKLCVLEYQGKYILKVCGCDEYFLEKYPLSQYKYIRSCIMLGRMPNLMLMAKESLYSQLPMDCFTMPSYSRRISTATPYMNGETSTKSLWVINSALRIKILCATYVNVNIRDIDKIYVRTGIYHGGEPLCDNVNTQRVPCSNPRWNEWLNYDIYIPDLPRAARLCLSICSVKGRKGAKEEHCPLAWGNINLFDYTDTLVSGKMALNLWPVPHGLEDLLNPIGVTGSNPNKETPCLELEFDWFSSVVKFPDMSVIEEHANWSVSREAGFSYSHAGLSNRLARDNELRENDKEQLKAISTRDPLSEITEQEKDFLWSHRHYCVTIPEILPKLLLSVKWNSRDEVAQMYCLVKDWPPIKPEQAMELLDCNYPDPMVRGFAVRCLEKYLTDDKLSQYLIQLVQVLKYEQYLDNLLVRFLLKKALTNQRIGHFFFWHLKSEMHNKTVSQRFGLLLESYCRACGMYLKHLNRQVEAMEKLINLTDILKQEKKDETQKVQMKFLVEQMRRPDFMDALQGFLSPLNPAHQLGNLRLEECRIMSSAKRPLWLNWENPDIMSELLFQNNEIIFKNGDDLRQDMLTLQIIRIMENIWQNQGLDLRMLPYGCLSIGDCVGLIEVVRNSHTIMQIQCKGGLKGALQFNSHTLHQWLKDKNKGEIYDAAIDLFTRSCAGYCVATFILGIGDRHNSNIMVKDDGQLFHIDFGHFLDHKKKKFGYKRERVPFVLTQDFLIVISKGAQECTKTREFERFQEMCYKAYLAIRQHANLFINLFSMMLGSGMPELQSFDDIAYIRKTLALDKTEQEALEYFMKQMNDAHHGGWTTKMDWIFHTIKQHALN

Row | Compound | pIC50 [1] | half-life at 1 µM [2] | pIC50 [4] | GI50 [3] | GI50 [5]
1 | COc1ncc(-c2ccc3ncnc(N[C@H]4CCN(C(=O)C5CCOCC5)C4)c3c2)cc1C(=O)Oc1ccc([N+](=O)[O-])cc1 | 6.92 | < 1 min | 8.18 | 575 nM | 52 nM
2 | C=CC(=O)Nc1cc(-c2ccc3ncnc(N[C@H]4CCN(C(=O)C5CCOCC5)C4)c3c2)cnc1OC | – | > 1440 min | 8.07 | 1520 nM | 710 nM
3 | COc1ncc(-c2ccc3ncnc(N[C@H]4CCN(C(=O)C5CCOCC5)C4)c3c2)cc1C(=O)Oc1cccnc1 | 6.18 | 2.5 min | 9.59 | 199 nM | 19 nM
4 | O=Cc1cc(-c2ccc3ncnc(N[C@H]4CCN(C(=O)C5CCOCC5)C4)c3c2)ccc1O | – | < 1 min | 8.19 | 7780 nM | 320 nM
5 | COc1ncc(-c2ccc3ncnc(N[C@H]4CCN(C(=O)C5CCOCC5)C4)c3c2)cc1C(=O)Oc1ccc(C#N)cc1 | < 6.00 | < 1 min | 8.34 | 479 nM | 27 nM
6 | COc1ncc(-c2ccc3ncnc(N[C@H]4CCN(C(=O)C5CCOCC5)C4)c3c2)cc1C(=O)Oc1ccc(F)cc1F | 7.41 | 3.1 min | 8.83 | 433 nM | 64 nM
7 | COc1ncc(-c2ccc3ncnc(N[C@H]4CCN(C(=O)C5CCOCC5)C4)c3c2)cc1C(=O)Oc1c(F)cc(F)cc1F | 7.06 | < 1 min | 8.97 | 260 nM | 32 nM
8 | COc1ncc(-c2ccc3ncnc(N[C@H]4CCN(C(=O)C5CCOCC5)C4)c3c2)cc1C(=O)Oc1ccc(Cl)cc1Cl | 6.46 | 1.2 min | 8.82 | 346 nM | 142 nM
9 | COc1ncc(-c2ccc3ncnc(N[C@H]4CCN(C(=O)C5CCOCC5)C4)c3c2)cc1C(=O)Oc1ccc(Cl)cc1 | < 6.00 | 12.7 min | 9.10 | 276 nM | 16 nM
10 | COc1ncc(-c2ccc3ncnc(N[C@H]4CCN(C(=O)C5CCOCC5)C4)c3c2)cc1C(=O)Oc1ccc(C)cc1 | 6.84 | 353 min | 8.61 | 137 nM | 3 nM
11 | COc1ncc(-c2ccc3ncnc(N[C@H]4CCN(C(=O)C5CCOCC5)C4)c3c2)cc1C(=O)Oc1ccc(C(F)(F)F)cc1 | 6.48 | 1.9 min | 9.03 | 816 nM | 133 nM
12 | COc1ccc(OC(=O)c2cc(-c3ccc4ncnc(N[C@H]5CCN(C(=O)C6CCOCC6)C5)c4c3)cnc2OC)cc1 | 7.25 | 387 min | 8.69 | 225 nM | 6 nM
13 | C#Cc1ccc(-c2ccc3ncnc(N[C@H]4CCN(C(=O)C5CCOCC5)C4)c3c2)cc1C=O | – | 1.9 min | 8.57 | 4180 nM | 850 nM

Now from value to compound, other results behind:

Row | pIC50 [1] | half-life at 1 µM [2] | pIC50 [4] | Compound | GI50 [3] | GI50 [5]
14 | < 6.00 | 1.1 min | 8.85 | COc1ncc(-c2ccc3ncnc(N[C@H]4CCN(C(=O)C5CCOCC5)C4)c3n2)cc1C(=O)Oc1ccc(Cl)cc1Cl | 752 nM | 53 nM
15 | – | 2.3 min | 7.03 | COc1ncc(-c2ccc3ncnc(N[C@H]4CCN(C(=O)C5CCOCC5)C4)c3n2)cc1C=O | 310 nM | 350 nM
16 | – | 2.1 min | 7.31 | COc1ncc(-c2ccc3ncnc(N[C@H]4CCN(C(=O)C5CCOCC5)C4)c3c2)cc1C=O | 200 nM | 170 nM
17 | 7.53 | 3.2 min | 8.50 | COc1ncc(-c2ccc3ncnc(N[C@H]4CCN(C(=O)C5CCOCC5)C4)c3n2)cc1C(=O)Oc1ccc(F)cc1F | 420 nM | 31 nM
18 | < 6.00 | 10.1 min | 8.59 | COc1ncc(-c2ccc3ncnc(N[C@H]4CCN(C(=O)C5CCOCC5)C4)c3n2)cc1C(=O)Oc1ccc(Cl)cc1 | 776 nM | 157 nM
19 | 6.60 | 2.8 min | 9.15 | COc1ncc(-c2ccc3ncnc(N[C@H]4CCN(C(=O)C5CCOCC5)C4)c3n2)cc1C(=O)Oc1cccnc1 | 662 nM | 122 nM
20 | – | 430 min | 7.98 | COc1ncc(-c2ccc3ncnc(N[C@H]4CCN(C(=O)C5CCOCC5)C4)c3n2)cc1CCl | 570 nM | 340 nM
21 | – | 420 min | 7.62 | COc1ncc(-c2ccc3ncnc(N[C@H]4CCN(C(=O)C5CCOCC5)C4)c3c2)cc1CCl | 490 nM | 310 nM
22 | 7.87 | 326 min | 8.21 | COc1ncc(-c2ccc3ncnc(N[C@H]4CCN(C(=O)C5CCOCC5)C4)c3n2)cc1C(=O)Oc1ccc(C)cc1 | 139 nM | 8 nM
23 | 7.03 | 1.7 min | 9.00 | COc1ncc(-c2ccc3ncnc(N[C@H]4CCN(C(=O)C5CCOCC5)C4)c3n2)cc1C(=O)Oc1ccc(C(F)(F)F)cc1 | 1260 nM | 96 nM
24 | – | > 1440 min | 7.32 | C=CC(=O)Nc1cc(-c2ccc3ncnc(N[C@H]4CCN(C(=O)C5CCOCC5)C4)c3n2)cnc1OC | 1190 nM | 650 nM
25 | – | < 1 min | 8.25 | O=Cc1cc(-c2ccc3ncnc(N[C@H]4CCN(C(=O)C5CCOCC5)C4)c3n2)ccc1O | 5480 nM | 710 nM
26 | < 6.00 | > 1440 min | 8.92 | COC(=O)c1cc(-c2ccc3ncnc(N[C@H]4CCN(C(=O)C5CCOCC5)C4)c3n2)cnc1OC | 447 nM | 42 nM
27 | < 6.00 | > 1440 min | 8.80 | COC(=O)c1cc(-c2ccc3ncnc(N[C@H]4CCN(C(=O)C5CCOCC5)C4)c3c2)cnc1OC | 1240 nM | 50 nM
28 | – | 2.1 min | 8.83 | C#Cc1ccc(-c2ccc3ncnc(N[C@H]4CCN(C(=O)C5CCOCC5)C4)c3n2)cc1C=O | 2320 nM | 430 nM
29 | 7.27 | 359 min | 8.93 | COc1ccc(OC(=O)c2cc(-c3ccc4ncnc(N[C@H]5CCN(C(=O)C6CCOCC6)C5)c4n3)cnc2OC)cc1 | 138 nM | 8 nM
30 | < 6.00 | < 1 min | 8.31 | COc1ncc(-c2ccc3ncnc(N[C@H]4CCN(C(=O)C5CCOCC5)C4)c3n2)cc1C(=O)Oc1c(F)cc(F)cc1F | 438 nM | 65 nM
31 | 7.29 | < 1 min | 8.73 | COc1ncc(-c2ccc3ncnc(N[C@H]4CCN(C(=O)C5CCOCC5)C4)c3n2)cc1C(=O)Oc1ccc(C#N)cc1 | 425 nM | 32 nM
32 | 7.98 | < 1 min | 8.64 | COc1ncc(-c2ccc3ncnc(N[C@H]4CCN(C(=O)C5CCOCC5)C4)c3n2)cc1C(=O)Oc1ccc([N+](=O)[O-])cc1 | 788 nM | 20 nM
